Laboratory results as given in the supplement of paper PMC5412046.
Structures can show the parent of a compound that is named as a salt.

Columns and labels:
SB.msgc-1 = test: AC50 for growth inhibition (viability) (log10 M); higher = less potent; settings: SB.msgc-1 (sporadic gastric cancer)
Outline: (§1)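 Gastric cancer cells from hereditary or sporadic patients, 500 per 1536 well, were exposed to compound for 48 h over 11 threefold dilutions from a final 46 μM. CellTiter-Glo luminescence, read on a ViewLux, measured viability, which was normalised to DMSO. The log half-maximal activity concentration came from four-parameter fits, and only high-quality curve classes were kept.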

SB.mhdgc-1 = test: as above; settings: SB.mhdgc-1 (hereditary c.1380delA CDH1 gastric cancer)
Outline: as §1

| SMILES | AC50 for growth inhibition (log10 M) (SB.msgc-1) | AC50 for growth inhibition (log10 M) (SB.mhdgc-1) |
| --- | --- | --- |
| Fc1cc(-c2cccc3ncc(-c4cnn(C5CCNCC5)c4)nc23)cc(F)c1CN1CCOCC1 [NVP-BSK805] | -4.68 | -5.03 |
| OC[C@H]1O[C@H](C[C@@H]1O)N2\C=C(F)/C(=O)NC2=O [Floxuridine] | -6.48 | -7.78 |
| Cc1cnc(Nc2ccc(F)cc2Cl)nc1-c1c[nH]c(C(=O)N[C@H](CO)c2cccc(Cl)c2)c1 | -4.73 | -5.13 |
| CC[C@H](CC#N)OC(=O)N[C@@H](C)c1cccc(NC(=O)Nc2ccc(-c3cnco3)c(OC)c2)c1 [AVN-944] | -5.23 | -5.88 |
| CN(C)CC(=O)N1CCC(CC1)C2=CC=C(NC(=O)C3=NC(=C[NH]3)C#N)C(=C2)\C4=C\CCCC4 | -5.23 | -6.28 |
| CCN(CC)CCCCNc1nc2cc(Cl)c(Cl)cc2nc1-c1ccc(-c2cccs2)s1 | -4.68 | -5.03 |
| COc1cc(N2CCC(C(N)=O)CC2)ccc1Nc1nc(N)c(Cl)c(Nc2ccccc2[S+](=O)([O-])C(C)C)n1 | -5.58 | -6.03 |
| CCC(=O)N1CCN(CC1)C2=C(C=C(C=C2)N3C(=O)\C=C/C4=C3C5=CC(=CC=C5N=C4)C6=CN=C7C=CC=CC7=C6)C(F)(F)F [Torin-1] | -5.13 | -6.63 |
| CC(C)n1nc(-c2cc3cc(O)ccc3[nH]2)c2c(N)ncnc21 [PP-242] | -5.28 | -6.93 |
| COC(=O)Nc1nc2cc(Sc3ccccc3)ccc2[nH]1 [Fenbendazole] | -5.53 | -6.63 |
| COc1ccc(-c2nc(N3CCOCC3)c3sc(CN(C)c4ncc(C(=O)NO)cn4)cc3n2)cn1 [CUDC-907] | -7.83 | -6.28 |
| Cc1ccc(C(=O)Nc2ccc(CN3CCN(C)CC3)c(C(F)(F)F)c2)cc1C#Cc1cnc2cccnn12 [Ponatinib] | -4.88 | -5.78 |
| CCCC1=NC(=C2[N]1NC(=N\C2=O)/C3=CC(=CC=C3OCC)[S+]([O-])(=O)N4CCN(CC)CC4)C [Vardenafil] | -4.83 | -4.73 |
| CCCCN1CCC(CNC(=O)c2c3n(c4ccccc24)CCCO3)CC1 [Piboserod hydrochloride] | -5.53 | -5.53 |
| CC[C@@H](C)[C@H](NC(=O)[C@H](CC1CCCCC1)NC(=O)c1ccno1)C(=O)N1CCC2(CCc3ccccc32)CC1 [GB 83] | -4.98 | -4.88 |
| O=C1NC(=O)/C(=C/c2ccc3nccc(-c4ccncc4)c3c2)S1 [GSK-615] | -6.03 | -6.33 |
| CC1=C(C=CC=C1)N2\C(=N/C3=C(C(=CC=C3)C)C2=O)C[N]4N=CC5=C4N=CN=C5N [PIK-293] | -7.08 | -6.73 |
| S=P(N1CC1)(N1CC1)N1CC1 [ThioTEPA] | -5.23 | -5.48 |
| N#C[C@H](O[C@@H]1O[C@H](CO[C@@H]2O[C@H](CO)[C@@H](O)[C@H](O)[C@H]2O)[C@@H](O)[C@H](O)[C@H]1O)c1ccccc1 [Amygdalin] | -4.68 | -4.73 |
| N/C(=N\C(=O)c1nc(Cl)c(N)nc1N)NCc1ccccc1 [Benzamil] | -5.53 | -5.73 |
| C[N]1C=C(C=N1)C2=C3\C=N/NC(=O)C4=C3C(=CC(=C4)NC(=O)[C@H](N)C5CCCCC5)[NH]2 | -5.63 | -6.08 |
| CO[C@@H]1[C@@H](O)[C@H](O)[C@@H](n2c3c(Cl)cccc3c3c4c(c5c6cccc(Cl)c6[nH]c5c32)C(=O)NC4=O)O[C@H]1CO [Rebeccamycin] | -6.43 | -6.83 |
| Cc1cc(Nc2cc(NC(=O)c3c(Cl)cccc3Cl)ccn2)nc(N)n1 [RO495] | -6.38 | -5.58 |

| SMILES | AC50 for growth inhibition (log10 M) (SB.msgc-1) | AC50 for growth inhibition (log10 M) (SB.mhdgc-1) |
| --- | --- | --- |
| OC[C@H]1O[C@@H]2[C@@H](OC\3=N\C(=N)\C=C/[N@@]23)[C@@H]1O [Cyclocytidine HCl] | -5.43 | -6.13 |
| COc1cc2ncnc(Nc3cccc(Br)c3)c2cc1OC | -6.88 | -7.08 |
| CC[C@H]1CN2CCc3cc(OC)c(OC)cc3[C@@H]2C[C@@H]1C[C@H]1NCCc2cc(OC)c(OC)cc21 [Emetine] | -6.83 | -5.68 |
| CN1CCN(CC1)C2=CC3=C([NH]C(=N3)C/4=C(\N)C5=C(F)C=CC=C5NC4=O)C=C2 [Dovitinib] | -4.73 | -4.78 |
| CCN(CC)CCOC1=CC=C(NC2=NC=C3\C=C(/C(=O)N(C)C3=N2)C4=C(Cl)C=CC=C4Cl)C=C1 | -5.98 | -5.18 |
| CCCCC[C@H](O)/C=C/[C@H]1[C@H](O)CC(=O)[C@@H]1CCCCCCC(=O)O [Alprostadil] | -4.68 | -5.13 |
| CCc1ccc(C(=O)Nc2cc(CN3CCN(C)CC3)cc(C(F)(F)F)c2)cc1C#Cc1cnc2ccnn2c1 [PRP003-013] | -4.78 | -5.13 |
| CCOC(=O)[C@@H](N)Cc1ccc(-c2cc(O[C@H](c3ccc(Cl)cc3-n3ccc(C)n3)C(F)(F)F)nc(N)n2)cc1.O=C(O)CNC(=O)c1ccccc1 [Telotristat etiprate] | -5.03 | -4.78 |
| C[C@@]12C(=O)OC(=O)[C@@]1(C)C1CCC2O1 [Cantharidin] | -5.53 | -5.28 |
| Nc1ncnc2c1ncn2[C@@H]1O[C@H](CO)[C@@H](O)[C@H]1O [Adenosine] | -5.58 | -6.08 |
| COc1cc2c(Oc3ccc(NC(=O)C4(C(=O)Nc5ccc(F)cc5)CC4)cc3F)ccnc2cc1OCCCN1CCOCC1 [Foretinib] | -4.73 | -4.83 |
| O=C1NC(=O)/C(=C/c2ccc3nccnc3c2)S1 | -4.89 | -4.84 |
| CN(C)CCCN\C1=C\2C(=O)N(C)C(=O)\N=C2N(C)C3=C1C=CC=C3 | -4.73 | -5.73 |
| COc1cc2nc(-c3ccc(N4CCN(C)CC4)cc3)nc(NCCN3CCOCC3)c2cc1OC | -6.78 | -5.28 |
| CCOc1cc2c(c(F)c1OCC)C(=N)N(CC(=O)c1cc(N3CCOCC3)c(OC)c(C(C)(C)C)c1)C2 [E5555] | -4.68 | -5.03 |
| CN(C)CC[C@H](CSc1ccccc1)Nc1ccc([S+](=O)([O-])NC(=O)c2ccc(N3CCN(Cc4ccccc4-c4ccc(Cl)cc4)CC3)cc2)cc1[N+](=O)[O-] [ABT-737] | -5.03 | -5.43 |
| C[C@H](NCc1ccc(OCc2cccc(F)c2)cc1)C(N)=O [Safinamide mesilate] | -4.78 | -5.08 |
| O=C(CCCCCCC(=O)Nc1cccnc1)NO [Pyroxamide] | -5.33 | -5.53 |
| Cl.Cl.Cl.O[C@@H](COc1cccc2ncccc12)CN1CCN([C@@H]2c3ccccc3[C@@H]3[C@H](c4ccccc42)C3(F)F)CC1 [Zosuquidar trihydrochloride] | -5.28 | -4.93 |
| CC(C)Nc1cc(C(F)(F)F)cc2nc(NC(=O)c3cccnc3)nn12 [S-99] | -5.08 | -5.28 |
| O=[S+]([O-])(NCCNC/C=C/c1ccc(Br)cc1)c1cccc2cnccc12 [H-89] | -4.73 | -4.88 |
| CC(C)c1cnn2c(NCc3ccccc3)cc(N[C@@H](CO)[C@H](O)CO)nc12 [BS-194] | -6.58 | -6.73 |
| C=CC(=O)Nc1cccc(Nc2nc(NC3CCC(N(C)C)CC3)nc3c2ncn3C(C)C)c1 (configuration not stated) | -7.43 | -7.88 |
